A short description of data set [1]: Acute toxicity test, mice. The note with it: mouse, in vivo; single oral administration, 4-week-old Jcl:ICR mice (males, females). How it is done:
(§1) The LD50 of compound 1 exceeded 2,000 mg/kg, as of single oral administration, in 4-week-old Jcl:ICR mice (males, females) and 5-week-old Jcl:Wistar rats (males, females).

Data set [2] deals with anterior ocular segment of rabbits. The following applies: rabbit, in vivo. Here is the method:
(§2) Male Japanese albino and pigmented rabbits having no anterior ocular abnormalities were used. One eye received 50 μl of the test drug, the other eye 50 μl of physiological saline as a control. Changes over time in ocular tension were measured. Ocular tension was measured for both eyes using a Pneumatonograph (produced by Alcon) before and 30 minutes and/or 1 hour after instillation. The test drug was (±)-1-(cyclohexyloxycarbonyloxy)ethyl 2-ethoxy-1-[[2'-(1H-tetrazol-5-yl)biphenyl-4-yl]methyl]-1H-benzimidazole-7-carboxylate (hereinafter referred to as Compound 1) as suspended in physiological saline or 0.1 w/v % polysorbate 80 to concentrations of 0.1, 0.5 and 1.0 w/v %. Also performed periodically were macroscopic observation of the anterior ocular segment and measurement of pupil diameter.

Data set [3] relates to Japanese albino rabbits. The following applies: rabbit, in vivo. How it is done:
as §2

Data set [4] has as its system pigmented rabbits. The note with it: rabbit, in vivo. How it is done: as §2
The nature of data set [5]: Acute toxicity test, rats. The following applies: rat, in vivo; single oral administration, 5-week-old Jcl:Wistar rats (males, females). Here is the method:
as §1

Data set [6] concerns pigmented rabbits. Put plainly: Action for lowering intraocular pressure in pigmented rabbits (Pneumatonograph). The format is in vivo, rabbit. The following applies: for Intraocular Pressure 1 hour after instillation / Intraocular Pressure 30 minutes after instillation / Intraocular Pressure before instillation: 50 μl; for Intraocular Pressure before instillation: baseline; for ocular tension (result in words): suspended in 0.1 w/v % polysorbate 80. Here is the method: (§3) The action for lowering intraocular pressure in rabbits
as §2

The test system of data set [7] is Japanese albino rabbits. Put plainly: Action for lowering intraocular pressure in Japanese albino rabbits (Pneumatonograph). The format is in vivo, rabbit. The following applies: for Intraocular Pressure 30 minutes after instillation / Intraocular Pressure before instillation: 50 μl; for Intraocular Pressure 30 minutes after instillation / Intraocular Pressure before instillation / Intraocular Pressure difference: n=5; for Intraocular Pressure before instillation: baseline; for Intraocular Pressure difference: 30 minutes after vs before instillation. How it is done:
as §3, §2

Data set [8] deals with anterior ocular segment of rabbits. The following applies: rabbit, in vivo. Here is the method:
as §2
This is another data set of the same source.

[9] abbreviates: 0.1 w/v %, suspended in 0.1 w/v % polysorbate 80, n=6.
[10] abbreviates: 1.0 w/v %, suspended in 0.1 w/v % polysorbate 80, n=7.
Setting [11] is: 0.1 w/v %, suspended in physiological saline.
Setting [12] is: 0.5 w/v %, suspended in physiological saline.

Structures are written as SMILES. Where two headings read alike, the source gives them in different places. Bounds are passed on as bounds.

From patent publication US5639773A, “Ocular hypotensive agent” (priority 1993, dated 1997) come the findings set out here.

As to `CCOc1nc2cccc(C(=O)OC(C)OC(=O)OC3CCCCC3)c2n1Cc1ccc(-c2ccccc2-c2nnn[nH]2)cc1` (racemic) [Compound 1, (±)-1-(cyclohexyloxycarbonyloxy)ethyl 2-ethoxy-1-[[2'-(1H-tetrazol-5-yl)biphenyl-4-yl]methyl]-1H-benzimidazole-7-carboxylate], the LD50 in data set [1] and in data set [5] was greater than 2000 mg/kg in each case. The “macroscopic abnormalities in the anterior ocular segment” value in data set [2] and in data set [8] was “no macroscopic abnormalities were noted” throughout. Moreover, the “change in pupil diameter” value with Japanese albino rabbits [3] and in the data set on pigmented rabbits [4] was “Nor was there any change in pupil diameter” each time. Besides, the “Intraocular Pressure 1 hour after instillation” value was 23.6 ± 0.33 mmHg in the data set with pigmented rabbits [6] (setting [9]) and 21.4 ± 0.43 mmHg with pigmented rabbits [6] (1.0 w/v %, suspended in 0.1 w/v % polysorbate 80, n=7, **p < 0.001 vs before instillation). The “Intraocular Pressure 30 minutes after instillation” value in the data set on pigmented rabbits [6] (0.1 w/v %, suspended in 0.1 w/v % polysorbate 80, n=6, *p < 0.05 vs before instillation) stood at 22.0 ± 0.39 mmHg; in the data set with pigmented rabbits [6] (setting [10]), 21.9 ± 0.81 mmHg; in the data set with Japanese albino rabbits [7] (setting [11]) it was 16.3 ± 1.16 mmHg; in the data set on Japanese albino rabbits [7] (setting [12]), 16.0 ± 0.76 mmHg; in the data set with Japanese albino rabbits [7] (1.0 w/v %, suspended in physiological saline, *p < 0.05 vs before instillation), 15.0 ± 0.47 mmHg. For the same compound, the “Intraocular Pressure before instillation” value in the data set with pigmented rabbits [6] (setting [9]) is given as 24.3 ± 0.25 mmHg; in the data set with pigmented rabbits [6] (setting [10]), 24.0 ± 0.29 mmHg; in the data set on Japanese albino rabbits [7] (setting [11]), 17.8 ± 0.80 mmHg; in the data set with Japanese albino rabbits [7] (setting [12]) it was 18.2 ± 0.60 mmHg; in the data set with Japanese albino rabbits [7] (1.0 w/v %, suspended in physiological saline), 18.7 ± 0.44 mmHg. For the same compound, the “ocular tension (result in words)” value is reported as “fell greatly” in the data set on pigmented rabbits [6] (0.1 w/v %, 30 minutes after instillation); “fell greatly” with pigmented rabbits [6] (1.0 w/v %, one hour after instillation); “fell dose-dependently” in the data set on Japanese albino rabbits [7] (by 30 minutes after instillation, 0.1, 0.5 and 1.0 w/v %, suspended in physiological saline). Moreover, the results for the “Intraocular Pressure difference” value in the data set with Japanese albino rabbits [7] (0.1 w/v %), in the data set on Japanese albino rabbits [7] (0.5 w/v %) and in the data set with Japanese albino rabbits [7] (1.0 w/v %) were -1.5 mmHg, -2.2 mmHg and -3.7 mmHg, respectively.
